According to the supplement of paper PMC10307832:

Key:
Experiment in all cases: relative viability (nuclei count vs DMSO), 5 days (fraction); higher = more cells survive
[1] = compound: COc1cc([C@@H]2c3cc4c(cc3[C@@H](O[C@@H]3O[C@@H]5CO[C@@H](C)O[C@H]5[C@H](O)[C@H]3O)[C@H]3COC(=O)[C@H]23)OCO4)cc(OC)c1O [Etoposide] + COc1cccc2cc(-c3nc([C@H]4CC[C@H](C(=O)O)CC4)n4ncnc(N)c34)[nH]c12 [OSI-027] (partner 0.5 µM)
In short: (§1)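 Relative viability equals treated-well nuclei counts divided by vehicle-well nuclei counts. Counts came from 4× images of lung cancer cell lines grown in 1536-well plates for 5 days after pin-tool dosing on the day after seeding. Dosing used one drug alone or a fixed anchor-drug dose plus five library-drug doses (not always all listed) in √10 steps, and values are medians of duplicate plates.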

[2] = compound: COc1cc([C@@H]2c3cc4c(cc3[C@@H](O[C@@H]3O[C@@H]5CO[C@@H](C)O[C@H]5[C@H](O)[C@H]3O)[C@H]3COC(=O)[C@H]23)OCO4)cc(OC)c1O [Etoposide] + C[C@]1(O)C[C@@H](c2nc(-c3ccc4ccc(-c5ccccc5)nc4c3)c3c(N)nccn32)C1 [Linsitinib] (partner 1 µM)
In short: as §1

[3] = compound: COc1cc([C@@H]2c3cc4c(cc3[C@@H](O[C@@H]3O[C@@H]5CO[C@@H](C)O[C@H]5[C@H](O)[C@H]3O)[C@H]3COC(=O)[C@H]23)OCO4)cc(OC)c1O [Etoposide] + Cc1nc(NC(=O)N2CCC[C@H]2C(N)=O)sc1-c1ccnc(C(C)(C)C(F)(F)F)c1 [Alpelisib] (partner 2 µM)
In short: as §1

[4] = compound: COc1cc([C@@H]2c3cc4c(cc3[C@@H](O[C@@H]3O[C@@H]5CO[C@@H](C)O[C@H]5[C@H](O)[C@H]3O)[C@H]3COC(=O)[C@H]23)OCO4)cc(OC)c1O [Etoposide] + O=C(CCCCCCC(=O)Nc1ccccc1)NO [Vorinostat] (partner 1 µM)
In short: as §1

| Cell Line | relative viability ([1]; first compound 0.01 µM) | relative viability ([1]; first compound 0.03162 µM) | relative viability ([1]; first compound 0.1 µM) | relative viability ([1]; first compound 0.3162 µM) | relative viability ([1]; first compound 1 µM) | relative viability ([2]; first compound 0.01 µM) | relative viability ([2]; first compound 0.03162 µM) | relative viability ([2]; first compound 0.1 µM) | relative viability ([2]; first compound 0.3162 µM) | relative viability ([2]; first compound 1 µM) | relative viability ([3]; first compound 0.01 µM) | relative viability ([3]; first compound 0.03162 µM) | relative viability ([3]; first compound 0.1 µM) | relative viability ([3]; first compound 0.3162 µM) | relative viability ([3]; first compound 1 µM) | relative viability ([4]; first compound 0.01 µM) | relative viability ([4]; first compound 0.03162 µM) | relative viability ([4]; first compound 0.1 µM) | relative viability ([4]; first compound 0.3162 µM) | relative viability ([4]; first compound 1 µM) |
| --- | --- | --- | --- | --- | --- | --- | --- | --- | --- | --- | --- | --- | --- | --- | --- | --- | --- | --- | --- | --- |
| NCI-H1666 | 0.853 | 0.812 | 0.678 | 0.528 | 0.408 | 0.906 | 0.765 | 0.523 | 0.362 | 0.333 | 0.929 | 0.931 | 0.69 | 0.315 | 0.28 | 0.94 | 0.933 | 0.918 | 0.632 | 0.549 |
| HCC-366 | 0.911 | 1.16 | 0.466 | 0.374 | 0.0799 | 0.474 | 0.678 | 0.337 | 0.166 | 0.0566 | 0.305 | 0.39 | 0.333 | 0.162 | 0.0382 | 0.353 | 0.386 | 0.122 | 0.0606 | 0.0304 |
| SK-MES-1 | 0.523 | 0.616 | 0.544 | 0.437 | 0.189 | 1.05 | 1.07 | 0.862 | 0.612 | 0.262 | 0.746 | 0.957 | 0.496 | 0.518 | 0.249 | 1.11 | 1.2 | 0.873 | 0.806 | 0.351 |
| NCI-H727 | 0.724 | 0.674 | – | 0.542 | 0.513 | 0.239 | 0.286 | 0.3 | 0.337 | 0.349 | 0.616 | 0.524 | 0.566 | 0.58 | 0.423 | 1.16 | 1.47 | 0.873 | 1.12 | 0.96 |
| RERF-LC-KJ | 0.529 | 0.615 | 0.382 | 0.613 | 0.429 | 0.84 | 0.895 | 0.866 | 0.769 | 0.562 | 0.73 | 0.924 | 0.513 | 0.852 | 0.622 | 0.624 | 0.728 | 0.5 | 0.621 | 0.412 |
| NCI-H1623 | 0.438 | 0.497 | 0.386 | 0.413 | 0.322 | – | – | – | – | – | – | – | – | – | – | – | – | – | – | – |
| Calu-6 | – | – | – | – | – | 0.914 | 1.01 | 0.819 | 0.758 | 0.39 | 0.837 | 1.08 | 0.798 | 0.709 | 0.338 | – | – | – | – | – |
| LC-2-ad | 0.81 | 0.839 | 0.473 | 0.42 | 0.25 | 0.809 | 0.976 | 0.863 | 0.624 | 0.248 | 0.888 | 0.911 | 0.846 | 0.532 | 0.172 | 0.687 | 0.736 | 0.69 | 0.459 | 0.245 |
| CAL-12T | 0.527 | 0.603 | 0.339 | 0.555 | 0.199 | 0.791 | 0.849 | 0.619 | 0.597 | 0.181 | 1.15 | 1.2 | 1.32 | 0.799 | 0.306 | 0.798 | 0.782 | 0.724 | 0.403 | 0.213 |
